Measurements as given in patent publication US4419447A, “Fermentation process for producing demycinosyltylosin” (Eli Lilly and Company, priority 1981, dated 1983).
In brackets after ≈: the same amount, converted by molar mass. Where a name gives a salt, the structure may show the parent alone. Read-outs that look alike come from different tables or passages of the source.

Columns and labels:
[1] = tested on: Streptomyces fradiae NRRL 12170; test: Antibiotic sensitivity of S. fradiae NRRL 12170 (sensitivity discs on seeded agar plates); format: cell-based
Description: (§1) ^a Determined by using sensitivity discs padded onto seededagar

[2] = tested on: Streptomyces fradiae E2724.1; test: Antibiotic sensitivity of S. fradiae E2724.1 (sensitivity discs on seeded agar plates); format: cell-based
Description: as §1

[3] = tested on: Streptococcus pyogenes C203; test: Experimental infection in mice; format: in vivo; conditions: two doses
[4] = tested on: Streptococcus pneumoniae Park I; test: Experimental infection in mice; format: in vivo
Mycoplasma gallisepticum [5] = test: Treatment of induced Mycoplasma gallisepticum infection in chicks with DMT tartrate; format: in vivo; conditions: infected control 231
Procedure: (§2) Activity against Mycoplasma species is an especially useful aspect of the DMT compounds. Tables 10 and 11 summarize experiments using DMT and DMT tartrate for the treatment of induced Mycoplasma gallisepticum infections in chickens. The compounds were administered in the drinking water (at 1 and 2 grams per gallon for 1 to 3 days) or by injection at 15 or 30 mg/kg of body weight.

[6] = tested on: Streptococcus pyogenes C203; test: In vitro activity, standard agar-dilution assay; format: cell-based
Description: (§3) Table 8 summarizes the minimal inhibitory concentrations (MIC), as measured by standard agar-dilution assays, at which DMT (free base) inhibits certain bacteria.

Pasteurella multocida = test: In vitro activity, standard agar-dilution assay; format: cell-based
Description: as §3

[7] = tested on: Staphylococcus aureus 209P; test: In vitro activity, standard agar-dilution assay; format: cell-based
Description: as §3

Pasteurella hemolytica = test: In vitro activity, standard agar-dilution assay; format: cell-based
Description: as §3

[8] = tested on: Staphylococcus aureus 3055; test: In vitro activity, standard agar-dilution assay; format: cell-based
Description: as §3

Mycoplasma gallisepticum [9] = test: In vitro activity, standard agar-dilution assay; format: cell-based; conditions: Mycoplasmoides gallisepticum
Description: as §3

[10] = tested on: Streptococcus sp. (Group D) 282; test: In vitro activity, standard agar-dilution assay; format: cell-based
Description: as §3

Mycoplasma hyorhinis = test: In vitro activity, standard agar-dilution assay; format: cell-based
Description: as §3

Mycoplasma hyopneumoniae = test: In vitro activity, standard agar-dilution assay; format: cell-based; conditions: Mesomycoplasma hyopneumoniae
Description: as §3

[11] = tested on: Streptococcus pneumoniae Park I; test: In vitro activity, standard agar-dilution assay; format: cell-based
Description: as §3

[12] = format: physicochemical
Description: DMT base is soluble in water and in most polar organic solvents, such as acetone, methanol, ethanol, chloroform, dimethylformamide and dimethyl sulfoxide. DMT acid addition salts are more soluble in water than is DMT base.

Mycoplasma gallisepticum [13] = test: Treatment of induced Mycoplasma gallisepticum infection in chicks with DMT base; format: in vivo; conditions: infected control 304
Procedure: as §2

physchem = format: physicochemical; conditions: 66% aqueous dimethylformamide
[14] = tested on: Staphylococcus aureus 3055; test: Experimental infection in mice; format: in vivo; conditions: two doses
[15] = tested on: gram-positive microorganisms and Mycoplasma species; test: Inhibition of growth of pathogenic bacteria (general statement); format: cell-based
Description: as §3

[16] = Acute toxicity of DMT in mice; conditions: mouse, in vivo
Description: In these studies, 4- to 5-week-old Harlan ICR mice were used. […]

[17] = 1.0 g/gal, 1-3 days, drinking water
[18] = 2.0 g/gal, 1-3 days, drinking water

SMILES: O=C(Cc1cccs1)N[C@@H]1C(=O)N2C(C(=O)[O-])=C(C[n+]3ccccc3)CS[C@H]12 [Cephaloridine]
- Antibiotic Sensitivity ([1]; disc conc. 30 μg): +
- Antibiotic Sensitivity ([2]; disc conc. 30 μg): +

SMILES: O=C(N[C@H](CO)[C@H](O)c1ccc([N+](=O)[O-])cc1)C(Cl)Cl [Chloramphenicol]
- Antibiotic Sensitivity ([1]; disc conc. 30 μg): +
- Antibiotic Sensitivity ([2]; disc conc. 30 μg): +

SMILES: CCC1OC(=O)CC(O)C(C)C(OC2OC(C)C(OC3CC(C)(O)C(O)C(C)O3)C(N(C)C)C2O)C(CC=O)CC(C)C(=O)C=CC(C)=CC1CO (stereo not shown) [DMT Tartrate]
- ED50 ([3]; oral, challenge 11.3 × LD50): 172 mg/kg × 2
- ED50 ([3]; subcutaneous, challenge 13 × LD50): 2.3 mg/kg × 2
- ED50 ([4]; po): 100 mg/kg
- ED50 ([4]; sc): ≤ 9.9 mg/kg
- Avg. Wt. (Mycoplasma gallisepticum [5]; 30 mg/kg, injection): 330 g
- Avg. Wt. (Mycoplasma gallisepticum [5]; [17]): 354 g
- Avg. Wt. (Mycoplasma gallisepticum [5]; [18]): 458 g

SMILES: CCC1OC(=O)CC(O)C(C)C(OC2OC(C)C(OC3CC(C)(O)C(O)C(C)O3)C(N(C)C)C2O)C(CC=O)CC(C)C(=O)C=CC(C)=CC1CO (stereo not shown) [DMT, 23-demycinosyltylosin]
- MIC [6]: 0.25 µg/mL (≈ 0.337 µM)
- MIC (Pasteurella multocida): 3.12 µg/mL (≈ 4.21 µM)
- MIC [7]: 0.25 µg/mL (≈ 0.337 µM)
- MIC (Pasteurella hemolytica): 12.5 µg/mL (≈ 16.8 µM)
- MIC [8]: 1 µg/mL (≈ 1.35 µM)
- MIC (Mycoplasma gallisepticum [9]): 0.097 µg/mL (≈ 0.131 µM)
- MIC [10]: 0.5 µg/mL (≈ 0.674 µM)
- MIC (Mycoplasma hyorhinis): 0.78 µg/mL (≈ 1.05 µM)
- MIC (Mycoplasma hyopneumoniae): 0.195 µg/mL (≈ 0.263 µM)
- MIC [11]: 0.13 µg/mL (≈ 0.175 µM)
- solubility in most polar organic solvents [12]: soluble
- solubility in water [12]: soluble
- Avg. Wt. (Mycoplasma gallisepticum [13]; 15 mg/kg, injection): 453 g
- Avg. Wt. (Mycoplasma gallisepticum [13]; [17]): 392 g
- Avg. Wt. (Mycoplasma gallisepticum [13]; [18]): 397 g
- ED50 ([3]; Streptococcus pyogenes, C203, po, oral, challenge 11.3 × LD50, read-out: ED50): 218 mg/kg
- ED50 ([3]; Streptococcus pyogenes, C203, sc, subcutaneous, challenge 13 × LD50, read-out: ED50): 2.2 mg/kg
- pKa (physchem): ~7.25
- ED50 ([4]; po, two doses, challenge 2.7 × LD50): 66 mg/kg
- ED50 ([4]; sc, subcutaneous, two doses, challenge 3 × LD50): 15.7 mg/kg
- ED50 ([14]; Staphylococcus aureus, 3055, sc, subcutaneous, challenge 21 × LD50): 2.7 mg/kg
- ED50 ([14]; Staphylococcus aureus, 3055, oral, challenge 26 × LD50): 64 mg/kg
- inhibition of growth of pathogenic organisms [15]: especially active against gram-positive microorganisms and Mycoplasma species
- LD50 ([16]; ip, females): 325 mg/kg
- LD50 ([16]; ip, males): 721 mg/kg
- LD50 ([16]; iv, females): 186 mg/kg
- LD50 ([16]; iv, males): 100 mg/kg
- LD50 ([16]; po, females): > 5000 mg/kg
- LD50 ([16]; sc, females): 5450 mg/kg

SMILES: CCC[C@@H]1C[C@@H](C(=O)N[C@@H]([C@H]2O[C@H](SC)[C@H](O)[C@@H](O)[C@H]2O)[C@@H](C)O)N(C)C1 [Lincomycin]
- Antibiotic Sensitivity ([1]; disc conc. 2 μg): -
- Antibiotic Sensitivity ([2]; disc conc. 2 μg): -

SMILES: [H]/N=C(/N)N[C@H]1[C@H](O)[C@@H](O)[C@H](O[C@@H]2O[C@@H](C)[C@](O)(C=O)[C@H]2O[C@@H]2O[C@@H](CO)[C@H](O)[C@@H](O)[C@@H]2NC)[C@@H](N/C(N)=N\[H])[C@@H]1O [Streptomycin]
- Antibiotic Sensitivity ([1]; disc conc. 10 μg): +
- Antibiotic Sensitivity ([2]; disc conc. 10 μg): +

SMILES: CN(C)[C@@H]1C(O)=C(C(N)=O)C(=O)[C@@]2(O)C(O)=C3C(=O)c4c(O)cccc4[C@@](C)(O)[C@H]3C[C@@H]12 [Tetracycline]
- Antibiotic Sensitivity ([1]; disc conc. 30 μg): +
- Antibiotic Sensitivity ([2]; disc conc. 30 μg): +

SMILES: CN[C@H](CC(C)C)C(=O)N[C@H]1C(=O)N[C@@H](CC(N)=O)C(=O)N[C@H]2C(=O)N[C@H]3C(=O)N[C@H](C(=O)N[C@H](C(=O)O)c4cc(O)cc(O)c4-c4cc3ccc4O)[C@H](O)c3ccc(c(Cl)c3)Oc3cc2cc(c3O[C@@H]2O[C@H](CO)[C@@H](O)[C@H](O)[C@H]2O[C@H]2C[C@](C)(N)[C@H](O)[C@H](C)O2)Oc2ccc(cc2Cl)[C@H]1O [Vancomycin]
- Antibiotic Sensitivity ([1]; disc conc. 30 μg): +
- Antibiotic Sensitivity ([2]; disc conc. 30 μg): +

SMILES: CCC1OC(=O)CC(O)C(C)C(OC2OC(C)C(OC3CC(C)(O)C(O)C(C)O3)C(N(C)C)C2O)C(CCO)CC(C)C(=O)C=CC(C)=CC1CO (stereo not shown) [dihydro-DMT, 20-dihydro-23-demycinosyltylosin]
- inhibition of growth of pathogenic organisms [15]: especially active against gram-positive microorganisms and Mycoplasma species
